Assay results reported in ChEMBL document CHEMBL1799929, “Efficient sequential synthesis of PET Probes of the COX-2 inhibitor [11C]celecoxib and its major metabolite [11C]SC-62807 and in vivo PET evaluation” (Bioorg Med Chem, 2011).

Legend:
Type in all cases: ADME, organism-based
Blood [1] = test: Drug uptake in Sprague-Dawley rat blood at 0.29 to 1.3 nmol/body, iv after 60 mins by gamma counting based PET imaging method; conditions: in vivo, 1 h
Blood [2] = test: Drug uptake in Sprague-Dawley rat blood at 0.29 to 1.3 nmol/body, iv after 40 mins by gamma counting based PET imaging method; conditions: in vivo
Liver [3] = test: Drug uptake in Sprague-Dawley rat liver at 0.29 to 1.3 nmol/body, iv after 10 mins by gamma counting based PET imaging method; conditions: in vivo
Liver [4] = test: Drug uptake in Sprague-Dawley rat liver at 0.20 to 1.4 nmol/body, iv after 2 mins by gamma counting based PET imaging method; conditions: in vivo
Kidney = test: Drug uptake in Sprague-Dawley rat kidney at 0.20 to 1.4 nmol/body, iv after 2 mins by gamma counting based PET imaging method; conditions: in vivo
Intestine = test: Drug uptake in Sprague-Dawley rat intestine at 0.20 to 1.4 nmol/body, iv after 60 mins by gamma counting based PET imaging method; conditions: in vivo, 1 h
[5] = Drug uptake in Sprague-Dawley rat urinary bladder at 0.20 to 1.4 nmol/body, iv after 60 mins by gamma counting based PET imaging method; conditions: in vivo, 1 h
Blood [6] = test: Drug uptake in Sprague-Dawley rat blood at 0.20 to 1.4 nmol/body, iv within 40 mins by gamma counting based PET imaging method; conditions: in vivo
Liver [7] = test: Drug uptake in Sprague-Dawley rat liver at 0.20 to 1.4 nmol/body, iv within 40 mins by gamma counting based PET imaging method; conditions: in vivo
[8] = Drug uptake in Sprague-Dawley rat bile at 0.20 to 1.4 nmol/body, iv within 40 mins by gamma counting based PET imaging method; conditions: in vivo
[9] = Drug uptake in Sprague-Dawley rat urine at 0.20 to 1.4 nmol/body, iv within 40 mins by gamma counting based PET imaging method; conditions: in vivo

Row | Compound | Drug uptake (Blood [1]) | Drug uptake (Blood [2]) | Drug uptake (Liver [3]) | Drug uptake (Liver [4]) | Drug uptake (Kidney) | Drug uptake (Intestine) | Drug uptake [5] | Drug uptake (Blood [6]) | Drug uptake (Liver [7]) | Drug uptake [8] | Drug uptake [9]
1 | [11CH3]c1ccc(-c2cc(C(F)(F)F)nn2-c2ccc(S(N)(=O)=O)cc2)cc1 | > 1 %ID/ml | Active | Active |  |  |  |  |  |  |  | 
2 | NS(=O)(=O)c1ccc(-n2nc(C(F)(F)F)cc2-c2ccc([11C](=O)O)cc2)cc1 |  |  |  | 35 %ID | 14 %ID | 58 %ID | 22 %ID | Active | Active | Active | Active
